Laboratory results reported in paper PMC8050080, “Cannabis sativa terpenes are cannabimimetic and selectively enhance cannabinoid activity” (Scientific Reports, 2021).

Columns and labels:
[1] = test system: male and female CD-1 mice; assay: Tail flick thermal latency test (antinociception); format: in vivo; conditions: for tail flick antinociception (efficacy in words): terpenes 50–200 mg/kg i.p. (β-Caryophyllene 100 mg/kg), WIN55,212-2 up to 10 mg/kg, over 2 h
Procedure: Antinociception was tested using the tail flick thermal latency test. Mice were baselined by gently restraining the animal and lowering the distal portion of the tail into a water bath set to 52 °C or 47 °C where stated, and the latency to flick the tail recorded with a stopwatch, with a 10 s cutoff. Mice were then injected with compounds intraperitoneally (i.p.). Thermal latency was then assessed over a time course of 2 h, or at a single time-point as noted. […] For assays using terpene/WIN55,212-2 co-treatment, WIN55,212-2 was co-administered with terpene in the same solution.

[2] = test system: male and female CD-1 mice; assay: Hypothermia (core temperature, rectal thermometer); format: in vivo; conditions: for hypothermia vs baseline: 30 min after i.p. 200 mg/kg terpene or 5.6 mg/kg WIN55,212-2, Fig. S2A; for effect of rimonabant pretreatment on hypothermia: 10 mg/kg rimonabant, 200 mg/kg terpene or 5.6 mg/kg WIN55,212-2, Fig. 3, S4C
Procedure: Changes in core temperature were assessed using a lubricated rectal thermometer placed 1.0 cm into the mouse rectum. Temperature was assessed before treatment and 30 min post-treatment.

[3] = test system: male and female CD-1 mice; assay: Open field test (hypolocomotion); conditions: for mobile time of terpene combined with WIN55,212-2: 200 mg/kg terpene + 5.6 mg/kg WIN55,212-2, Fig. 5; for locomotor activity vs baseline / distance traveled and mobile time, experiment without baseline recording: 200 mg/kg terpene or 5.6 mg/kg WIN55,212-2 i.p.; for locomotor activity vs baseline: compared to baseline values, Fig. S2C,D, confounded by habituation; for distance traveled and mobile time, experiment without baseline recording: vs Vehicle, Fig. S3A,B
Procedure: All experiments were performed on male and female CD-1 (a.k.a. ICR) mice obtained from Charles River in age-matched cohorts of 5–6 weeks of age. […] The animals were maintained in an AAALAC-accredited vivarium at the University of Arizona in temperature and humidity-controlled rooms on a 12-h light/dark cycle. Standard chow and water were available ad libitum. […] Mice were randomized to treatment group by randomization of mice to cages upon arrival, and block random assignment of cages to treatment group. The experimenter was blinded to treatment group by the delivery of coded drug vials. The groups were not decoded until all data had been acquired.
The open field test was used to determine potential hypolocomotive properties induced by terpene and cannabinoid treatment. The open field box was a white box with an open top and black floor. The tracking area was 30 cm × 28 cm. Mice were baselined by placing the mouse in the center of the box and recording from a video camera ~ 1.5 m above for a period of 5 min. Mice were then injected with compound and placed back in the open field box 10–15 min post-injection. In follow-up experiments, mice were not baselined, injected with compound, and placed in the open field box from 10 to 15 min. The total distance traveled and mobile time of mice were analyzed using AnyMaze software.

[4] = test system: WT CHO cells; assay: ERK phosphorylation (Western) in WT CHO cells; format: cell-based; conditions: for ERK phosphorylation in WT CHO cells: 500 μM terpene or 10 μM WIN55,212-2, 5 min, Fig. 7B; for rimonabant sensitivity of ERK activation in WT CHO cells: 500 μM terpene after 10 μM rimonabant, Fig. 7C
Procedure: WT-CHO cells were obtained from ATCC (#CCL-61). CHO cells stably expressing the human CB1 receptor were obtained from PerkinElmer (#ES-110-C) and utilized for western blots (CB1-CHO-C2) or binding assays (CB1-CHO-C3). HitHunter (CB1-CHO-cAMP) and PathHunter (CB-CHO-βarr2) assays were performed on respective CB1-CHO lines, and were a kind gift from Dr. Robert Laprairie[44]. CHO cells stably expressing cloned CB2 (CB2-CHO) were produced by electroporation with the human CB2 N-3xHA tag cDNA (GeneCopoeia). A stable expressing population was selected for with 500 μg/mL G418. CHO cells stably expressing the human mu opioid receptor were obtained from PerkinElmer (#ES-542-C). All cells were grown on 10 cm dishes in DMEM/F-12 50/50 mix w/ L-glutamine and 15 mM HEPES (Corning) containing 10% heat-inactivated fetal bovine serum, 100 units/mL penicillin, 100 units/mL streptomycin, and 400 μg/mL G418 (CB1-CHO-C2, CB1-CHO-C3, CB2-CHO, MOR-CHO); 800 μg/mL G418 (CB1-CHO-cAMP); 800 μg/mL G418 and 300 μg/mL hygromycin B (CB1-CHO-βarr2). WT CHO were grown as stated above without selection antibiotic. Cells were incubated in a humidified incubator at 37 °C with 5% CO2 and were sub-cultured every 2–3 days.
Cells were plated in 6-well plates 24 h prior to the start of the experiments. Cells were serum starved for 1 h then treated for 5 min with compound. In antagonist experiments, cells were pretreated for 5 min before agonist treatment for 5 min. Media was then aspirated, cells were placed on ice, washed with ice-cold PBS once, and lysis buffer (20 mM Tris–HCl, pH 7.4, 150 mM NaCl, 2 mM EDTA, 0.1% SDS, 1% Nonidet P-40, 0.25% deoxycholate, 1 mM sodium orthovanadate, 1 mM PMSF, 1 mM sodium fluoride, and a protease inhibitor cocktail (EMD Millipore)), was added. Cells were scraped and collected. Lysates were vortexed then centrifuged at 13 k rpm at 4 °C for 10 min. Lysates were then processed for Western blots or stored at − 80 °C.
Cell lysate protein was quantified with a modified BCA protein assay using manufacturers protocol (Bio-Rad). Samples (20–30 μg) were ran on precast gels (10% Bis–Tris, Bolt brand, from ThermoFisher). Gels were wet-transferred to nitrocellulose membranes at 30 V for at least 60 min at 4 °C. Blots were blocked with 5% non-fat dry milk in TBS for 30 min, washed 3 × for 5 min with TBS + 0.1% Tween-20 (TBST), and incubated with primary antibody overnight at 4 °C. Primary antibody: pERK and tERK (Cell Signaling) at 1:1000 dilution in 5% BSA in TBST. Blots were then washed 3 × with TBST then incubated with secondary antibodies for 90 min at room temperature. Secondary antibodies: Goat anti-Rabbit 800 W and Goat anti-Mouse 680 diluted at 1:10,000 and 1:20,000 (Licor), respectively, in 5% non-fat milk in TBST. Blots were washed 3X with TBST and 1 × with TBS, then imaged on a Licor Odyssey Fc or Azure Sapphire. Bands were analyzed using Image-J and reported as pERK/tERK normalized to the standard, or simply as pERK/tERK.

[5] = molecular target: T1, human mu opioid receptor (Homo sapiens, UniProt P35372); format: cell-based; conditions: 500 μM terpene or 10 μM morphine, 5 min, Fig. S13A
T1 construct: host or cells: CHO (MOR-CHO)
Procedure: Cells were plated in 6-well plates 24 h prior to the start of the experiments. Cells were serum starved for 1 h then treated for 5 min with compound. In antagonist experiments, cells were pretreated for 5 min before agonist treatment for 5 min. […] Cells were scraped and collected. Lysates were vortexed then centrifuged at 13 k rpm at 4 °C for 10 min. Lysates were then processed for Western blots or stored at − 80 °C.
CHO cells were serum starved for 1 hr, then treated with Vehicle, 10 μM morphine, or 500
μM terpene for 5 min. ERK was quantitated and reported as above. Data expressed as the
vs. Vehicle group by 1 Way ANOVA with Dunnett’s post hoc test. B) MOR-CHO cells
serum starved for 1 hr, then pre-treated with Vehicle or 10 μM naloxone for 10 min, then
treated with Vehicle, 10 μM morphine, or 500 μM terpene for 5 min. ERK quantitated,
reported, and normalized as in A (n=3 independent experiments). *, **** = p < 0.05,
0.0001 vs. terpene-alone group for each set by 1 Way ANOVA with Sidak’s post hoc test
(set up as pairwise comparisons between terpene and terpene + naloxone for each set). For
both, representative blots are shown below each graph.

[6] = test system: male and female CD-1 mice; assay: Catalepsy ring test; format: in vivo; conditions: for effect of istradefyllene pretreatment on catalepsy response: 10 mg/kg istradefyllene; for effect of istradefyllene pretreatment on catalepsy response / effect of rimonabant pretreatment on catalepsy response: 200 mg/kg terpene, Fig. 4; for effect of rimonabant pretreatment on catalepsy response: 10 mg/kg rimonabant; for catalepsy vs baseline: 15 min after i.p. 200 mg/kg terpene or 5.6 mg/kg WIN55,212-2, Fig. S2B; for catalepsy of terpene combined with WIN55,212-2: 200 mg/kg terpene + 5.6 mg/kg WIN55,212-2, Fig. 4
Procedure: Potential induction of catalepsy was assessed using the ring test as described. Mice were baselined, injected with compound, and then assessed with the ring test at 15 min post-injection. Data was represented as the percentage (%) of time in a “cataleptic” immobile state over the 5 min observation period.

[7] = molecular target: CB1 (Homo sapiens, UniProt P21554); assay: biochemical; format: binding; conditions: CB1-CHO membranes, Fig. 8A
[8] = test system: male and female CD-1 mice; assay: Cannabinoid tetrad of behaviors (antinociception, hypolocomotion, catalepsy, hypothermia); format: in vivo; conditions: 5.6 mg/kg WIN55,212-2 after 10 mg/kg rimonabant i.p., Fig. S4
Description: Our first set of experiments sought to determine whether selected terpenes/terpenoids (α-Humulene, β-Pinene, Linalool [terpenoid], Geraniol [terpenoid], and β-Caryophyllene as a putative cannabinoid receptor type 2 [CB2] agonist control) had activity in the cannabinoid tetrad of behaviors mediated by the CB1 receptor: antinociception, hypolocomotion, catalepsy, and hypothermia. These terpenes were selected based on their quantities in Cannabis sativa, with α-Humulene, β-Pinene, Linalool, and β-Caryophyllene all being found in higher quantities and Geraniol in lower to underdetermined quantities. Although it is not clear if geraniol is present in higher quantities, we nonetheless chose this ligand due to its reported anti-nociceptive activity (e.g.[22]). Terpenes were administered at several doses (50–200 mg/kg) i.p. and assessed in the tail flick assay in male and female CD-1 mice. […]
Antinociception was tested using the tail flick thermal latency test. Mice were baselined by gently restraining the animal and lowering the distal portion of the tail into a water bath set to 52 °C or 47 °C where stated, and the latency to flick the tail recorded with a stopwatch, with a 10 s cutoff. […] Thermal latency was then assessed over a time course of 2 h, or at a single time-point as noted. […]
Potential induction of catalepsy was assessed using the ring test as described. […]

CB1, sequence (P21554 whole entry): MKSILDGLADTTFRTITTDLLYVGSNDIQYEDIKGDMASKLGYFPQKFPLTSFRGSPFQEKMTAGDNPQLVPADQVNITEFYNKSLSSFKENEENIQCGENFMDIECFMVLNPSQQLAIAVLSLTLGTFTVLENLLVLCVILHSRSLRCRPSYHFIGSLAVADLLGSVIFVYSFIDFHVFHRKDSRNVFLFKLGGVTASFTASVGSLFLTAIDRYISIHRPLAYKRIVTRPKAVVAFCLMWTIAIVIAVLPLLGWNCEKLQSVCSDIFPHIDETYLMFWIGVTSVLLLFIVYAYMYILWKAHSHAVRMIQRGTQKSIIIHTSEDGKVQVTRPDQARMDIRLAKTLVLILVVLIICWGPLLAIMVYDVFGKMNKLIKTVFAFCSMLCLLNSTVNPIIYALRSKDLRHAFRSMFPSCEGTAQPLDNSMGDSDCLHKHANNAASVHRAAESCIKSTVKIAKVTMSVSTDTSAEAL
T1 sequence (P35372 whole entry): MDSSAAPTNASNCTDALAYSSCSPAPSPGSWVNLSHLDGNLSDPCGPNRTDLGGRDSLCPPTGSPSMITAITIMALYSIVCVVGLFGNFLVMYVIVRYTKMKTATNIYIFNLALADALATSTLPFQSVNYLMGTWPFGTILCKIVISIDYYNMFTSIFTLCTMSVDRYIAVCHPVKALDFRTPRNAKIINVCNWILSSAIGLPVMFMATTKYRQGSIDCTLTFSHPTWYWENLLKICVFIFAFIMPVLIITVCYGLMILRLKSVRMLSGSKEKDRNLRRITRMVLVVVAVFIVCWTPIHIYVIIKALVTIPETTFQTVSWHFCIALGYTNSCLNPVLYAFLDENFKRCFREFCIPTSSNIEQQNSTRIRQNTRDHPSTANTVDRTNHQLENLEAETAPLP

## Cc1c(C(=O)NN2CCCCC2)nn(-c2ccc(Cl)cc2Cl)c1-c1ccc(Cl)cc1 [Rimonabant, reference compound]
[1]; 10 mg/kg rimonabant i.p., 5.6 mg/kg morphine, Fig. S5A,B
  effect of rimonabant pretreatment on morphine-induced antinociception: no significant effect
[1]; 10 mg/kg rimonabant, water bath 47 °C, 30 min, Fig. S5C
  effect of rimonabant on baseline thermal latency: no significant effect

## CCn1c(=O)c2c(nc(/C=C/c3ccc(OC)c(OC)c3)n2C)n(CC)c1=O [istradefyllene, Istradefyllene, reference compound]
[2]; 10 mg/kg i.p., 30 min, Fig. S6A
  effect of istradefyllene alone on temperature: small but significant hypothermic
[3]; 10 mg/kg i.p., open field after 10 min, Fig. S6B,C
  effect of istradefyllene alone on locomotion: hyperlocomotive effect

## C=CC(C)(O)CCC=C(C)C (stereo not shown) [Linalool]
[4]
  ERK phosphorylation in WT CHO cells: did not cause ERK phosphorylation
[2]
  hypothermia vs baseline: induced significant hypothermia
[5]
  ERK stimulation in MOR-CHO cells: no response
[6]
  effect of istradefyllene pretreatment on catalepsy response: partially blocked
  effect of rimonabant pretreatment on catalepsy response: small but significant reduction
  catalepsy vs baseline: significant increases in cataleptic behavior
[1]; 200 mg/kg terpene i.p. after 10 mg/kg rimonabant, Fig. 2
  effect of rimonabant pretreatment on tail flick antinociception: fully blocked by rimonabant
[1]; female mice, 200 mg/kg + 5.6 mg/kg WIN55,212-2, Fig. S8A
  tail flick, Linalool combined with WIN55,212-2, females: a delay in response and no potentiation over Linalool alone
[1]; male mice, 200 mg/kg + 5.6 mg/kg WIN55,212-2, Fig. S8A
  tail flick, Linalool combined with WIN55,212-2, males: greater additive effects of combining both that occurred earlier in the time course
[1]; Fig. S1
  tail flick antinociception (efficacy in words): dose-dependent low efficacy
[7]
  competition for the orthosteric binding site against CP55,940: little to no competition
[3]
  mobile time of terpene combined with WIN55,212-2: further decrease in mobile time
  locomotor activity vs baseline: significant reductions in locomotor activity
  distance traveled and mobile time, experiment without baseline recording: reductions in distance traveled and mobile time
[3]; female mice, 200 mg/kg Linalool, Fig. S8B-C
  hypolocomotion, antagonist reversal, females: istradefyllene reversal
[3]; male mice, 200 mg/kg Linalool, Fig. S8B-C
  hypolocomotion, antagonist reversal, males: rimonabant reversal

## C/C1=C\CC/C(C)=C/CC(C)(C)/C=C/C1 [α-Humulene]
[4]
  rimonabant sensitivity of ERK activation in WT CHO cells: rimonabant-insensitive
  ERK phosphorylation in WT CHO cells: activated ERK
[2]; 10 mg/kg istradefyllene, 200 mg/kg terpene, Fig. 3
  effect of istradefyllene pretreatment on hypothermia: partially reversed
[2]
  effect of rimonabant pretreatment on hypothermia: partially reverse
  hypothermia vs baseline: induced significant hypothermia
[5]
  ERK stimulation in MOR-CHO cells: produced ERK stimulation
[6]
  effect of istradefyllene pretreatment on catalepsy response: completely blocked
  effect of rimonabant pretreatment on catalepsy response: small but significant reduction
  catalepsy of terpene combined with WIN55,212-2: additive effects
  catalepsy vs baseline: significant increases in cataleptic behavior
[1]; terpene 50–200 mg/kg i.p., dose-dependent, Fig. S1
  efficacy in the tail flick assay: 40–50%
[7]
  competition for the orthosteric binding site against CP55,940: some competition and semi-biphasic properties
[3]
  mobile time of terpene combined with WIN55,212-2: further decrease in mobile time
  locomotor activity vs baseline: significant reductions in locomotor activity
  distance traveled and mobile time, experiment without baseline recording: did not result in significant reductions

## Cc1c(C(=O)c2cccc3ccccc23)c2cccc3c2n1[C@H](CN1CCOCC1)CO3 [WIN55,212-2, reference compound]
[4]
  ERK phosphorylation in WT CHO cells: did not cause ERK phosphorylation
[2]
  effect of rimonabant pretreatment on hypothermia: only partially reversed
  hypothermia vs baseline: induced significant hypothermia
[6]
  catalepsy vs baseline: significant increases in cataleptic behavior
[8]
  effect of rimonabant on tetrad behaviors induced by the agonist: fully or partially reverse
[1]; Fig. S1
  tail flick antinociception (efficacy in words): dose-dependent increases in thermal latency with greater efficacy than any of the tested compounds
[3]
  locomotor activity vs baseline: significant reductions in locomotor activity
  distance traveled and mobile time, experiment without baseline recording: reductions in distance traveled and mobile time

## C=C1CCC2CC1C2(C)C (stereo not drawn) [β-Pinene]
[4]
  rimonabant sensitivity of ERK activation in WT CHO cells: rimonabant-insensitive
  ERK phosphorylation in WT CHO cells: activated ERK
[2]
  hypothermia vs baseline: induced significant hypothermia
[5]
  ERK stimulation in MOR-CHO cells: produced ERK stimulation
[6]
  effect of istradefyllene pretreatment on catalepsy response: completely blocked
  effect of rimonabant pretreatment on catalepsy response: no impact
  catalepsy of terpene combined with WIN55,212-2: additive effects
  catalepsy vs baseline: significant increases in cataleptic behavior
[1]; Fig. S1
  tail flick antinociception (efficacy in words): low efficacy but not in a dose-dependent manner
[7]
  competition for the orthosteric binding site against CP55,940: little to no competition
[3]; 10 mg/kg istradefyllene, 200 mg/kg terpene, Fig. 5
  effect of istradefyllene pretreatment on mobile time: significant reversal
[3]; 10 mg/kg istradefyllene, 200 mg/kg terpene, Fig. S7
  effect of istradefyllene pretreatment on distance traveled: istradefyllene reversal
[3]
  mobile time of terpene combined with WIN55,212-2: further decrease in mobile time
  locomotor activity vs baseline: significant reductions in locomotor activity
  distance traveled and mobile time, experiment without baseline recording: reductions in distance traveled and mobile time
